Experiments:
[1] = target: T1, Glutaminase kidney isoform, mitochondrial (Homo sapiens, UniProt O94925); assay: Allosteric inhibition of human GLS1 using glutamine as substrate incubated for 60 mins by NADH/NADPH-based absorbance analysis
T1 sequence (O94925 whole entry): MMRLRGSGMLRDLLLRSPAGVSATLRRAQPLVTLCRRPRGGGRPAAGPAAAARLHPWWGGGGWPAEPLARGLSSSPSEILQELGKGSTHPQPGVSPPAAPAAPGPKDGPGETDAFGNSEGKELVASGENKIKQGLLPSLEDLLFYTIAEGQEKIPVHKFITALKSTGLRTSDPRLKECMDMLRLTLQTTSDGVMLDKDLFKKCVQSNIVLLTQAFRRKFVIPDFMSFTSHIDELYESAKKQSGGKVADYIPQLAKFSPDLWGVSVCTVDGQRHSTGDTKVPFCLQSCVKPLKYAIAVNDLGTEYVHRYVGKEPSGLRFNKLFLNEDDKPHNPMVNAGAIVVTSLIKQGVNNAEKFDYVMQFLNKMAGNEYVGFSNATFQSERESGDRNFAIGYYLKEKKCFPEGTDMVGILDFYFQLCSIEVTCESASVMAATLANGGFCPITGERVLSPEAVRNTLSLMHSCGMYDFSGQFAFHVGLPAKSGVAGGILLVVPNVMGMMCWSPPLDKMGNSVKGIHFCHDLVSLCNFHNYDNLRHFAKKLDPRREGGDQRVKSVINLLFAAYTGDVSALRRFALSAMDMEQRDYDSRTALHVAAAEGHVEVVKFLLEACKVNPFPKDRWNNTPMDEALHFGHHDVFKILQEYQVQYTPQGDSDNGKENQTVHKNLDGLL

HCT-116 = assay: Antiproliferative activity against human HCT-116 cells overexpressing GLS1 assessed as inhibition of cell proliferation measured after 72 hrs by MTT assay; type: functional, cell-based; settings: HCT-116, 72 h
MDA-MB-436 = assay: Antiproliferative activity against human MDA-MB-436 cells overexpressing GLS1 assessed as inhibition of cell proliferation measured after 72 hrs by MTT assay; type: functional, cell-based; settings: MDA-MB-436, 72 h
[2] = Metabolic stability in human liver microsomes assessed as intrinsic clearance at 10 uM by LC-MS/MS analysis; type: ADME, Microsome; settings: read-out: CLH
[3] = Metabolic stability in human liver microsomes assessed as half life at 10 uM by LC-MS/MS analysis; type: ADME, Microsome; settings: liver microsomes
[4] = Metabolic stability in human plasma assessed as parent compound remaining at 1 uM measured after 2 hrs by LC-MS/MS analysis; type: ADME, cell-free; settings: read-out: Stability
[5] = Metabolic stability in human liver microsomes assessed as parent compound remaining at 10 uM measured after 30 mins by LC-MS/MS analysis; type: ADME, Microsome; settings: liver microsomes, read-out: Stability
[6] = Metabolic stability in human liver microsomes assessed as parent compound remaining at 10 uM measured after 60 mins by LC-MS/MS analysis; type: ADME, Microsome; settings: liver microsomes, read-out: Stability

Row | Structure (SMILES) | IC50 [1] | IC50 (HCT-116) | IC50 (MDA-MB-436) | microsomal CLint at 10 µM [2] | half-life at 10 µM [3] | remaining at 2 h, 1 µM [4] | remaining at 0.5 h, 10 µM [5] | remaining at 1 h, 10 µM [6]
1 | COc1ccc(Cn2cc(CCC(=O)Nc3nnc(N4CCC(Nc5nnc(NC(=O)Cc6ccccc6)s5)CC4)s3)nn2)cc1 | 0.0147 µM | 0.41 µM | 0.62 µM | – | – | – | – | –
2 | O=C(Cc1ccccc1)Nc1nnc(NC2CCN(c3nnc(NC(=O)CCc4cn(Cc5ccc(OC(F)(F)F)cc5)nn4)s3)CC2)s1 | 0.0171 µM | 0.19 µM | 0.4 µM | – | – | – | – | –
3 | O=C(CCc1cn(Cc2ccc(C(F)(F)F)cc2)nn1)Nc1ccc(N2CCC(Nc3nnc(NC(=O)Cc4ccccn4)s3)CC2)nn1 | 0.0183 µM | 0.53 µM | 0.84 µM | – | – | – | – | –
4 | Cc1cccc(C)c1Cn1cc(CCC(=O)Nc2nnc(N3CCC(Nc4nnc(NC(=O)Cc5ccccc5)s4)CC3)s2)nn1 | 0.0691 µM | 3.96 µM | 4.58 µM | – | – | – | – | –
5 | Cc1ccc(Cn2cc(CCC(=O)Nc3nnc(N4CC[C@H](Nc5nnc(NC(=O)Cc6ccccc6)s5)C4)s3)nn2)cc1 | 0.312 µM | 12.5 µM | > 20 µM | – | – | – | – | –
6 | COc1ccc(Cn2cc(CCC(=O)Nc3ccc(N4CCC(Nc5nnc(N)s5)CC4)nn3)nn2)cc1OC | > 10 µM | – | – | – | – | – | – | –
7 | O=C(CCc1cn(Cc2ccc(C(F)(F)F)cc2)nn1)Nc1ccc(N2CC[C@H](Nc3nnc(NC(=O)Cc4ccccn4)s3)C2)nn1 | > 1 µM | > 20 µM | > 20 µM | – | – | – | – | –
8 | COc1ccc(Cn2cc(CCC(=O)Nc3ccc(N4CCC(Nc5nnc(NC(=O)Cc6ccccn6)s5)CC4)nn3)nn2)cc1OC | 0.0607 µM | 5.75 µM | 6.72 µM | – | – | – | – | –
9 | O=C(CCc1cn(Cc2ccc(OC(F)(F)F)cc2)nn1)Nc1ccc(N2CC[C@H](Nc3nnc(NC(=O)Cc4ccccn4)s3)C2)nn1 | > 1 µM | > 20 µM | > 20 µM | – | – | – | – | –
10 | O=C(Cc1ccccc1)Nc1nnc(N[C@@H]2CCN(c3nnc(NC(=O)CCc4cn(Cc5ccc(C(F)(F)F)cc5)nn4)s3)C2)s1 | 0.0124 µM | 0.29 µM | 0.63 µM | – | – | – | – | –
11 | O=C(Cc1ccccc1)Nc1nnc(NC2CCN(c3nnc(NC(=O)c4ccn(Cc5ccc(C(F)(F)F)cc5)n4)s3)CC2)s1 | 0.0174 µM | 0.12 µM | 0.53 µM | 25.2 µL/min/mg | 1.15 h | 76% | – | –
12 | Cc1ccc(Cn2cc(CCC(=O)Nc3ccc(N4CCC(Nc5nnc(N)s5)CC4)nn3)nn2)cc1 | > 10 µM | – | – | – | – | – | – | –
13 | COc1ccc(Cn2cc(CCC(=O)Nc3nnc(N4CC[C@H](Nc5nnc(NC(=O)Cc6ccccc6)s5)C4)s3)nn2)cc1 | 0.544 µM | 14.2 µM | > 20 µM | – | – | – | – | –
14 | COc1ccc(Cn2cc(CCC(=O)Nc3ccc(N4CC[C@H](Nc5nnc(NC(=O)Cc6ccccn6)s5)C4)nn3)nn2)cc1 | > 1 µM | > 20 µM | > 20 µM | – | – | – | – | –
15 | O=C(CCc1cn(Cc2ccc(C(F)(F)F)cc2)nn1)Nc1ccc(N2CC[C@@H](Nc3nnc(NC(=O)Cc4ccccn4)s3)C2)nn1 | 0.0103 µM | 0.51 µM | 0.73 µM | – | – | – | – | –
16 | O=C(Cc1ccccc1)Nc1nnc(N[C@H]2CCN(c3nnc(NC(=O)CCc4cn(Cc5ccc(OC(F)(F)F)cc5)nn4)s3)C2)s1 | 0.381 µM | 10.1 µM | > 20 µM | – | – | – | – | –
17 | O=C(Cc1ccccc1)Nc1nnc(NC2CCN(c3nnc(NC(=O)CCc4cn(Cc5ccc(C(F)(F)F)cc5)nn4)s3)CC2)s1 | 0.00866 µM | 0.13 µM | 0.51 µM | 23.1 µL/min/mg | 1.27 h | 79% | – | –
18 | O=C(CCc1cn(Cc2ccc(OC(F)(F)F)cc2)nn1)Nc1ccc(N2CCC(Nc3nnc(NC(=O)Cc4ccccn4)s3)CC2)nn1 | 0.0172 µM | 1.24 µM | 1.02 µM | – | – | – | – | –
19 | Cc1cccc(C)c1Cn1cc(CCC(=O)Nc2ccc(N3CC[C@@H](Nc4nnc(NC(=O)Cc5ccccn5)s4)C3)nn2)nn1 | 0.0418 µM | 3.64 µM | 4.29 µM | – | – | – | – | –
20 | Nc1nnc(NC2CCN(c3ccc(NC(=O)CCc4cn(Cc5ccc(OC(F)(F)F)cc5)nn4)nn3)CC2)s1 | > 10 µM | – | – | – | – | – | – | –
21 | Cc1ccc(Cn2cc(CCC(=O)Nc3ccc(CCCCc4nnc(NC(=O)Cc5ccccn5)s4)nn3)nn2)cc1 | – | – | – | 40.2 µL/min/mg | 0.655 h | 72% | 56% | 35%

Row | Structure (SMILES) | IC50 [1] | IC50 (HCT-116) | IC50 (MDA-MB-436) | microsomal CLint at 10 µM [2] | half-life at 10 µM [3] | remaining at 2 h, 1 µM [4] | remaining at 0.5 h, 10 µM [5] | remaining at 1 h, 10 µM [6]
22 | Cc1ccc(Cn2cc(CCC(=O)Nc3ccc(N4CC[C@H](Nc5nnc(NC(=O)Cc6ccccn6)s5)C4)nn3)nn2)cc1 | > 1 µM | > 20 µM | > 20 µM | – | – | – | – | –
23 | O=C(Cc1ccccc1)Nc1nnc(N[C@H]2CCN(c3nnc(NC(=O)CCc4cn(-c5ccc(C(F)(F)F)cc5)nn4)s3)C2)s1 | 0.216 µM | 15.5 µM | > 20 µM | – | – | – | – | –
24 | Cc1cccc(C)c1Cn1cc(CCC(=O)Nc2ccc(N3CCC(Nc4nnc(NC(=O)Cc5ccccn5)s4)CC3)nn2)nn1 | 0.0678 µM | 6.09 µM | 6.98 µM | – | – | – | – | –
25 | Cc1ccc(Cn2cc(CCC(=O)Nc3ccc(N4CC[C@@H](Nc5nnc(NC(=O)Cc6ccccn6)s5)C4)nn3)nn2)cc1 | 0.0089 µM | 0.49 µM | 0.84 µM | – | – | – | – | –
26 | Nc1nnc(NC2CCN(c3ccc(NC(=O)CCc4cn(Cc5ccc(C(F)(F)F)cc5)nn4)nn3)CC2)s1 | > 10 µM | – | – | – | – | – | – | –
27 | COc1ccc(Cn2cc(CCC(=O)Nc3nnc(N4CCC(Nc5nnc(NC(=O)Cc6ccccc6)s5)CC4)s3)nn2)cc1OC | 0.0775 µM | 3.25 µM | 4.21 µM | – | – | – | – | –
28 | Cc1cccc(C)c1Cn1cc(CCC(=O)Nc2ccc(N3CCC(Nc4nnc(N)s4)CC3)nn2)nn1 | > 10 µM | – | – | – | – | – | – | –
29 | O=C(Cc1ccccc1)Nc1nnc(N[C@H]2CCN(c3nnc(NC(=O)CCc4cn(Cc5ccc(C(F)(F)F)cc5)nn4)s3)C2)s1 | 0.227 µM | 8.27 µM | > 20 µM | – | – | – | – | –
30 | COc1ccc(Cn2cc(CCC(=O)Nc3nnc(N4CC[C@@H](Nc5nnc(NC(=O)Cc6ccccc6)s5)C4)s3)nn2)cc1 | 0.057 µM | 0.56 µM | 0.76 µM | – | – | – | – | –
31 | O=C(CCc1cn(Cc2ccc(OC(F)(F)F)cc2)nn1)Nc1ccc(N2CC[C@@H](Nc3nnc(NC(=O)Cc4ccccn4)s3)C2)nn1 | 0.0136 µM | 0.7 µM | 0.88 µM | – | – | – | – | –
32 | COc1ccc(Cn2cc(CCC(=O)Nc3ccc(N4CC[C@@H](Nc5nnc(NC(=O)Cc6ccccn6)s5)C4)nn3)nn2)cc1 | 0.0113 µM | 0.68 µM | 1.54 µM | – | – | – | – | –
33 | O=C(Cc1ccccc1)Nc1nnc(N[C@@H]2CCN(c3nnc(NC(=O)CCc4cn(Cc5ccc(OC(F)(F)F)cc5)nn4)s3)C2)s1 | 0.0167 µM | 0.58 µM | 1.65 µM | – | – | – | – | –
34 | O=C(Cc1ccccc1)Nc1nnc(N[C@@H]2CCN(c3nnc(NC(=O)CCc4cn(-c5ccc(C(F)(F)F)cc5)nn4)s3)C2)s1 | 0.0179 µM | 0.85 µM | 2.03 µM | – | – | – | – | –
35 | COc1ccc(Cn2cc(CCC(=O)Nc3ccc(N4CCC(Nc5nnc(N)s5)CC4)nn3)nn2)cc1 | > 10 µM | – | – | – | – | – | – | –
36 | Cc1ccc(Cn2cc(CCC(=O)Nc3nnc(N4CCC(Nc5nnc(NC(=O)Cc6ccccc6)s5)CC4)s3)nn2)cc1 | 0.0124 µM | 0.35 µM | 0.42 µM | – | – | – | – | –
37 | COc1ccc(Cn2cc(CCC(=O)Nc3ccc(N4CCC(Nc5nnc(NC(=O)Cc6ccccn6)s5)CC4)nn3)nn2)cc1 | 0.0249 µM | 1.45 µM | 2.04 µM | – | – | – | – | –
38 | COc1ccc(Cn2cc(CCC(=O)Nc3ccc(N4CC[C@@H](Nc5nnc(NC(=O)Cc6ccccn6)s5)C4)nn3)nn2)cc1OC | 0.0357 µM | 3.88 µM | 4.48 µM | – | – | – | – | –
39 | Cc1ccc(Cn2cc(CCC(=O)Nc3ccc(N4CCC(Nc5nnc(NC(=O)Cc6ccccn6)s5)CC4)nn3)nn2)cc1 | 0.02 µM | 0.57 µM | 0.47 µM | – | – | – | – | –
40 | CO[C@@H](C(=O)Nc1nnc(NC2CCN(c3nnc(NC(=O)CCc4cn(CC5=CC=C(C(F)(F)F)CC5)nn4)s3)CC2)s1)c1ccccc1 | 0.00485 µM | 0.35 µM | 0.84 µM | 15.1 µL/min/mg | 1.91 h | 91% | – | –
41 | CO[C@H](C(=O)Nc1nnc(NC2CCN(c3nnc(NC(=O)CCc4cn(Cc5ccc(C(F)(F)F)cc5)nn4)s3)CC2)s1)c1ccccc1 | 0.0237 µM | 0.3 µM | 1.09 µM | 9.21 µL/min/mg | 3.14 h | 95% | – | –
42 | Cc1ccc(Cn2cc(CCC(=O)Nc3nnc(N4CC[C@@H](Nc5nnc(NC(=O)Cc6ccccc6)s5)C4)s3)nn2)cc1 | 0.0166 µM | 0.35 µM | 0.53 µM | – | – | – | – | –

Source: ChEMBL document CHEMBL5154870, “Discovery of novel glutaminase 1 allosteric inhibitor with 4-piperidinamine linker and aromatic heterocycles” (Eur J Med Chem, 2022)
